Patent US20230302142A1, “Cytotoxic Agents” (priority 2020, published 2023)

Tests used:
A431 (Skin) HIF+ = assay: MTT cytotoxicity assay, A431; format: cell-based; conditions: Homo sapiens, A-431, 72 hour incubation
Experimental: (§1) The in vitro cytotoxicity of compounds 16 and 22 were evaluated in a panel of cell lines using the standard MTT assay for a 72 hour incubation period (Table 2). Free payloads produced cytotoxicities in the nanomolar to picomolar range.
(§2) Tumor cell lines were maintained in RPMI1640 medium supplemented with 10% heat-inactivated fetal bovine serum, 2 mM L-glutamine and 1 mM sodium pyruvate. 1800 cells per well were seeded in a volume of 180 μl in a 96-well flat bottom polystyrene plate. The cells were allowed to adhere overnight at 37° C. in a CO2 incubator. Ligands were initially formulated in DMSO, and stocks stored at −80° C. They were then further formulated at lox concentration in RPMI1640 medium. 20 ul of diluted samples were added into each treatment well. On each plate, blank wells with no cells, and untreated wells containing cells, were included. […] Cytotoxicity was evaluated using a tetrazolium salt-based assay, the MTT assay. […] The plate was then read on a plate reader at 540 nm, and percentage cell survival calculated as follows: ((mean absorbance treated wells at concentration x−mean absorbance blank wells)÷(mean absorbance untreated wells at concentration x−mean absorbance blank wells))×100. Data were plotted as concentration in nM vs. % cell survival in Microsoft Excel, and IC50 values (concentration where cell survival is reduced by a half) were determined from the graph.

[1] = system: U138-MG (Glioblastoma) HIF++; assay: MTT cytotoxicity assay, U138-MG; format: cell-based; conditions: Homo sapiens, 72 hour incubation
Experimental: as §1, §2

LIM1215 (Colorectal) = assay: MTT cytotoxicity assay, LIM1215; format: cell-based; conditions: for IC50: LIM1215, MTT assay, 72 hour incubation, HIF1 negative cell-line
Experimental: as §1
Tumor cell lines were maintained in RPMI1640 medium supplemented with 10% heat-inactivated fetal bovine serum, 2 mM L-glutamine and 1 mM sodium pyruvate. 1800 cells per well were seeded in a volume of 180 μl in a 96-well flat bottom polystyrene plate. The cells were allowed to adhere overnight at 37° C. in a CO2 incubator. Ligands were initially formulated in DMSO, and stocks stored at −80° C. They were then further formulated at lox concentration in RPMI1640 medium. 20 ul of diluted samples were added into each treatment well. On each plate, blank wells with no cells, and untreated wells containing cells, were included. Plates were then cultured at 37° C. in a CO2 incubator for 72 hrs. Cytotoxicity was evaluated using a tetrazolium salt-based assay, the MTT assay. After 72 hours, the supernatant was removed from each well and 200 μl of a sterile filtered 500 μg/ml MTT solution in water added to each well. The plates were then incubated at 37° C. in a CO2 incubator for 4 hrs. The supernatant was then removed and the formazan crystals formed solubilized by adding 150 μl of DMSO to each well. The plate was then read on a plate reader at 540 nm, and percentage cell survival calculated as follows: ((mean absorbance treated wells at concentration x−mean absorbance blank wells)÷(mean absorbance untreated wells at concentration x−mean absorbance blank wells))×100. Data were plotted as concentration in nM vs. % cell survival in Microsoft Excel, and IC50 values (concentration where cell survival is reduced by a half) were determined from the graph.

SW620 (Colorectal) = assay: MTT cytotoxicity assay, SW620; format: cell-based; conditions: Homo sapiens, SW-620, 72 hour incubation
Experimental: as §1, §2

MS1 DNA fragment = assay: DNA footprinting (DNase I); format: binding
Experimental: The DNA sequence selectivity profile of 16 was investigated using a modification of the previously established DNA footprinting assay. Following an overnight incubation of the ligand-DNA complexes, the mixture was mixed with strand separation buffer containing 10 mM EDTA, 10 mM NaOH, 0.1% bromophenol blue, 80% formamide and incubated at 100° C. for 3 min. The mixture was then immediately cooled on ice and run on an 8% denaturing gel. […] This is in contrast to control molecules (FIG. 2), where indiscriminate binding to the DNA sequence can be observed.
Methods for the preparation of the “MS1” DNA fragment (FIG. 2) have been previously described^[19]. Briefly, the sequence which had been cloned into the BamHI site of pUC18 was obtained by cutting with HindIII and EcoRI. Radiolabelled DNA fragments were prepared by filling in the 3′-end of the HindIII site with [α-^32P]dATP using Klenow DNA polymerase (exo-).
The radiolabelled DNA fragment was separated from the remainder of the plasmid DNA on a 6% non-denaturing polyacrylamide gel. […]
Footprinting reactions were performed as previously described^[20] using the “MS1” DNA fragment, which represents a random DNA sequence. […] After gel purification, the radiolabelled DNA was dissolved in 10 mM Tris HCl pH 7.5 containing 0.1 mM EDTA, at a concentration of about 10 c.p.s per μL as determined on a hand held Geiger counter. […]

SW-48 (Colorectal) = assay: MTT cytotoxicity assay, SW-48; format: cell-based; conditions: Homo sapiens, SW48, 72 hour incubation
Experimental: as §1, §2

transcription factors = assay: Transcription factor plate array assay; format: cell-based; conditions: HeLa cells, 100 nM, 6 hours
Experimental: The transcription factor plate array assay kit was obtained from Signosis Inc (USA). Briefly, 2×10^6 HeLa cells were treated with 100 nM 16 and incubated for 6 hours before extracting the nuclear protein and carrying out the TF plate array assay. The assay was carried out following the manufacturer's protocol. In the case of each transcription factor, the RLU value obtained for the cells treated with 16 was deducted from the respective values obtained for the untreated cells to obtain the differences in TF activation/inhibition.

Compound	IC50 (A431 (Skin) HIF+)	IC50 [1]	IC50 (LIM1215 (Colorectal))	IC50 (SW620 (Colorectal))	preferred binding site (sequence motif) (MS1 DNA fragment; R is preferably a G or C, X is any base)	DNA footprint / binding pattern on the MS1 DNA sequence (MS1 DNA fragment; overnight incubation of ligand-DNA complexes)	IC50 (SW-48 (Colorectal))	major transcription factors down-regulated (transcription factors)	potency relative to 16 (LIM1215 (Colorectal); HIF1 negative cell-line LIM1215)
COc1cc2c(cc1OCCCC(=O)Nc1cc(C(=O)Nc3ccc(-c4cc(C)c(C(=O)Nc5ccccc5)s4)nc3)n(C)c1)N=C[C@@H]1CCCCN1C2=O [Compound 16, (S)-4-(4-((2-Methoxy-12-oxo-6a,7,8,9,10,12-hexahydrobenzo[e]pyrido[1,2-a] [1,4]diazepin-3-yl)oxy)butanamido)-1-methyl-N-(6-(4-methyl-5-(phenyl-carbamoyl)thiophen-2-yl)pyridin-3-yl)-1H-pyrrole-2-carboxamide]	0.029 nM	0.261 nM	1.6 nM	0.302 nM	XRXXRRXX	only two preferred sites were observed	0.142 nM	HIF1 (hypoxia-inducible factor 1), NF-1 (Neurofibromatosis type 1), FOXG1 and NF-κB	
COc1cc2c(cc1OCCCC(=O)Nc1cc(C(=O)Nc3ccc(-c4cc(C(=O)Nc5ccccc5)n(C)c4)cc3)n(C)c1)N=C[C@@H]1CCCCN1C2=O [Compound 22, (S)-4-(4-((2-Methoxy-12-oxo-6a,7,8,9,10,12-hexahydrobenzo[e]pyrido[1,2-a][1,4]diazepin-3-yl)oxy)butanamido)-1-methyl-N-(4-(1-methyl-5-(phenylcarbamoyl)-1H-pyrrol-3-yl)phenyl)-1H-pyrrole-2-carboxamide]	0.055 nM	1.62 nM	0.899 nM	0.291 nM			0.093 nM		two-fold more potent than 16
